Like-named read-outs stand apart in the source and are kept apart here.
Key:
[1] = Plasma protein binding by equilibrium dialysis (RED device), mouse plasma; type: in vitro ADME, BALB/c mice; details: BALB/c; Mouse plasma, 0.5 and 5 mg/L, 37 °C, 4 h; read-out: fuPlasma fraction unbound in plasma
Method: (§1) Plasma protein binding was measured by equilibrium dialysis using a RED device (8 kDa molecular cutoff; Thermo Scientific, Rockford, IL, USA) containing plasma and buffer chambers for dialysis and a base plate. Two concentrations (0.5 and 5 mg/L) of 1599 and 1810 were prepared in mouse plasma from BALB/c mice and rat plasma from Sprague-Dawley rats, and an aliquot of 300 µL was added in the plasma chamber in duplicate. A 500 µL aliquot of PBS was added in the buffer chamber for dialysis. Then, the base plate was covered with sealing tape and incubated at 37 °C at approximately 100 rpm on an orbital shaker for 4 h to achieve equilibrium. After incubation, 50 µL of each sample was pipetted from the plasma and buffer chambers into separate micro-centrifuge tubes. A total of 50 µL of plasma was added to the buffer samples and an equal volume of PBS to the collected plasma samples and vortexed. Samples were processed by protein precipitation and analyzed for bound and unbound drug concentrations by liquid chromatography-tandem mass spectrometry (LC-MS/MS). Ranitidine (0.5 and 5 mg/L) was included as a positive control. The fraction of compound unbound to plasma proteins (fu) was calculated from the measured concentrations in the plasma and buffer chambers using the following equation:(1) fu=1−C(Plasma Chamber)−C(Buffer Chamber)/C(Plasma Chamber)

plasma proteins = test: as above; type: in vitro ADME, BALB/c mice; details: mouse and rat
Method: as §1

[2] = Plasma protein binding by equilibrium dialysis (RED device), rat plasma; type: in vitro ADME, Sprague-Dawley rats; details: Sprague-Dawley, 0.5 and 5 mg/L, 37 °C, read-out: fuPlasma fraction unbound in plasma
Method: as §1

[3] = Fraction unbound in epithelial lining fluid calculated by Poulin and Theil equation, mouse; details: epithelial lining fluid (calculated), calculated from fu in plasma and albumin ratio plasma/ELF, read-out: fuELF fraction unbound in epithelial lining fluid
Method: (§2) For intravenous administration, the bolus dose was assumed to be mixed instantaneously into the venous blood. For subcutaneous administration, the dose was administered as an external compartment, absorbed into the venous compartment via a first-order absorption rate constant and a bioavailability component. For intrapulmonary aerosol administration, we have modified the lung tissue by adding the epithelial lining fluid (ELF) sub-compartment, as shown in Figure 2. The physiological volume of the ELF sub-compartment was obtained from the literature. The dose was administered as an external compartment, absorbed into the ELF compartment via a first-order absorption rate constant and a bioavailability component. The compound was assumed to be bound to the ELF proteins, and only the unbound fraction was distributed to the other sub-compartments of the lungs and ultimately to the systemic circulation. The fraction unbound in ELF was calculated from the fraction unbound in plasma and the albumin ratio between plasma and ELF using the equation described by Poulin and Theil.

[4] = Fraction unbound in epithelial lining fluid calculated by Poulin and Theil equation, rat; details: epithelial lining fluid (calculated), calculated from fu in plasma and albumin ratio plasma/ELF, read-out: fuELF fraction unbound in epithelial lining fluid
Method: as §2

[5] = Pharmacokinetic studies in healthy rats; type: in vivo; details: male, Sprague-Dawley, rat, plasma, IV SD 10 mg/kg, generated in this study, read-out: AUCinf Observed
Method: Urine samples were collected at predetermined time intervals (0–6, 6–10, 10–24, 24–48 h) up to 48 h after dosing, volumes were recorded, and samples were processed by protein precipitation and analyzed by LC-MS/MS. The fraction of drug excreted unchanged (fe) in urine at each time interval and a cumulative fe were calculated.
An additional single dose intravenous study of spectinamide 1599 with destructive sampling was performed to obtain the tissue PK profiles in rats. In this study, groups of four rats (two male and two female) were euthanized either at 15 min or at 4 h after dosing, and blood, lung, liver, spleen, and kidneys were collected. For tissue samples, the tissues were weighed and homogenized in four volumes of phosphate buffered saline (1× PBS) and stored at −70 °C until LC-MS/MS analysis.
Sample preparation was performed by protein precipitation using methanol. […]
An API 4500 triple quadruple mass spectrometer (Applied Biosystems, Foster City, CA, USA) equipped with a turbospray ion source was operated in the positive ion mode. Selected reaction monitoring using precursor→product ion combinations of m/z 487.2→207.1, 418→207.1, and 365.1→333.2 was used for quantification of spectinamides 1599, 1810 and the IS spectinomycin, respectively.

[6] = Integrated mouse and rat PBPK model, inter-animal variability; details: Intravenous Estimate (%RSE); simultaneous fit of mouse and rat plasma and tissue data
[7] = Parallel artificial membrane permeability assay (PAMPA); type: in vitro ADME; details: passive permeability could not be determined
[8] = Subcutaneous PBPK model predictions vs observed plasma concentrations in Mtb infected mice; type: in vivo, BALB/c mice; details: SC dose-ranging and dose-fractionation studies
in vivo = details: mouse
[9] = cited from earlier work; for AUCinf Liver Observed / AUCinf Lung Observed / AUCinf Observed / AUCinf Spleen Observed: healthy mice; for AUCinf Observed: plasma
[10] = Minimalistic PBPK model, mouse (fitting and simulation)
[11] = Intravenous Estimate (%RSE), model fitted to IV single dose 10 mg/kg plasma and tissue data

For CN[C@@H]1[C@H](O)[C@H](NC)[C@H]2O[C@]3(O)[C@H](O[C@@H]2[C@H]1O)O[C@H](C)C[C@H]3NC(=O)Cc1ccc(O)cn1 [Spectinamide 1810, 2-(5-hydroxypyridin-2-yl)-N-((2R,4R,4aS,5aR,6S,7S,8R,9S,9aR,10aS)-4a,7,9-trihydroxy-2-methyl-6,8-bis(methylamino)decahydro-2H-benzo[b]pyrano [2,3-e] [1,4]dioxin-4-yl)acetamide], which fraction unbound at 4 h [1] is on record?
The fraction unbound at 4 h was 0.693.

And the “plasma protein binding” value (plasma proteins)?
The value was “low plasma protein binding”.

What about the fraction unbound at 4 h [2] of the same compound?
Its fraction unbound at 4 h is 0.607.

What about the fraction unbound [3] of the same compound?
The fraction unbound was 0.965.

And the fraction unbound [4]?
The fraction unbound was 0.95.

What about the AUC(0-inf) [5] of the same compound?
The AUC(0-inf) was 20800 ng·h/mL.

And the “ω KI→COther inter-animal variability on KI→COthers” value [6]?
The value was 0.31 (14.7).

What about the “PAMPA concentrations in the acceptor compartment” value [7] of the same compound?
Its value is “below the limit of detection”.

And the “difference in pharmacokinetics between healthy and infected mice” value [8]?
The value was “no significant difference”.

What about the half-life (in vivo) of the same compound?
Its half-life is 5 min.

What about the bioavailability (in vivo; sc) of the same compound?
Its bioavailability is 100%.

And the “dose dependency of disposition” value ([9]; dose range of 10 to 400 mg/kg in mice)?
Its value is “did not suggest any dose dependencies”.

And the “AUCinf Liver Observed” value ([9]; IV QD5 10 mg/kg)?
The value was 51.2 µg·h/g.

And the “AUCinf Liver Observed” value ([9]; IV SD 10 mg/kg)?
The value was 31.6 µg·h/g.

And the “AUCinf Lung Observed” value ([9]; IV QD5 10 mg/kg)?
Its value is 11.2 µg·h/g.

What about the “AUCinf Lung Observed” value ([9]; IV SD 10 mg/kg) of the same compound?
The value was 5.75 µg·h/g.

And the “AUCinf Observed” value ([9]; IV QD5 10 mg/kg)?
The value was 9450 ng·h/mL.

And the “AUCinf Observed” value ([9]; IV SD 10 mg/kg)?
Its value is 7910 ng·h/mL.

What about the “AUCinf Observed” value ([9]; SC QD5 50 mg/kg) of the same compound?
Its value is 65500 ng·h/mL.

What about the “AUCinf Observed” value ([9]; SC QD5 200 mg/kg) of the same compound?
The value was 265000 ng·h/mL.

What about the “AUCinf Observed” value ([9]; SC SD 46 mg/kg) of the same compound?
The value was 38600 ng·h/mL.

And the “AUCinf Observed” value ([9]; SC SD 50 mg/kg)?
The value was 67900 ng·h/mL.

What about the “AUCinf Observed” value ([9]; SC SD 200 mg/kg) of the same compound?
Its value is 267000 ng·h/mL.

And the “AUCinf Spleen Observed” value ([9]; IV QD5 10 mg/kg)?
Its value is 9.45 µg·h/g.

What about the “AUCinf Spleen Observed” value ([9]; IV SD 10 mg/kg) of the same compound?
Its value is 4.29 µg·h/g.

What about the “KC→IKidney 1st order back flux from cellular sub compartment of the kidney” value [10, 11] of the same compound?
The value was 0.097 (45.1) 1/h.

What about the “KC→ILiver 1st order back flux from cellular sub compartment of the liver” value [10, 11] of the same compound?
Its value is 0.051 (17.2) 1/h.

What about the “KC→ILung 1st order back flux from cellular sub compartment of the lung” value [10, 11] of the same compound?
Its value is 0.076 (17.6) 1/h.

And the “KC→ISpleen 1st order back flux from cellular sub compartment of the spleen” value [10, 11]?
Its value is 0.013 (120) 1/h.

And the “KC→Iothers 1st order back flux from cellular sub compartment of the other tissues” value [10, 11]?
Its value is 7.0 × 10^−5 (0.00278) 1/h.

And the “Ka 1st order absorption rate constant” value ([10]; Subcutaneous Estimate (%RSE), healthy mice)?
Its value is 8.26 (14.5).

Reference: paper PMC10305115, “Development of a Minimalistic Physiologically Based Pharmacokinetic (mPBPK) Model for the Preclinical Development of Spectinamide Antibiotics” (Pharmaceutics, 2023)
